Patent US12668584B2, “Heterocyclic compounds as kinase inhibitors for therapeutic uses” (National Health Research Institutes, priority 2019, dated 2026)

Columns and labels:
[1] = tested on: BaF3-CSF1R-1600 cells (express ETV6-CSF1R fusion protein); test: MTS cell viability assay, BaF3-CSF1R-1600; format: cell-based; conditions: 72 h, read-out: Cellular Proliferation Assay BaF3-CSF1R GI50
Experimental: (§1) Studies were conducted to evaluate […] anticancer activity of certain compounds described in EXAMPLE 1 using 3-(4,5-dimethylthiazol-2-yl)-5-(3-carboxymethoxyphenyl)-2-(4-sulfophenyl)-2H-tetrazolium) (MTS) cell viability assays. Results from these studies are shown in Table 2 below (see columns 3 and 4).
(§2) The cell lines M-NFS-60 (ATCC® CRL-1838™) and BaF3-CSF1R-1600 were obtained from American Type Culture Collection (ATCC, Manassas, VA, USA). The stable BaF3-CSF1R-1600 cell line expresses ETV6-CSF1R fusion protein consisting of N-terminal ETS-variant gene 6 protein (ETV6 residues M1-G337) and CSF1R tyrosine kinase (CSF1R residues L533-C972). The M-NSF-60 and BaF3-CSF1R-1600 cells were cultured in RPMI1640 medium supplemented with 10% fetal bovine serum, 0.05 mM 2-ME, 10 U/ml penicillin, and 10 µg/ml streptomycin at 37° C. and 5% CO2.
(§3) M-NFS-60 and BaF3-CSF1R-1600 cells were seeded in 96-well plates at a density of 10000 cells/100 μl and 8000 cells/100 μl per well, respectively, for 16 h and treated with vehicle or various concentrations of test compounds in medium for 72 h. Viable cells were quantified using the MTS method (Promega, Madison, WI, USA) according to manufacturer's recommended protocol. The results were determined by measuring absorbance at 490 nm using a plate reader (Victor 2). The GI50 value was defined as the amount of compound that caused 50% reduction in cell viability in comparison with DMSO-treated (vehicle) control and was calculated using Prism GraphPad Prism version 6 software (GraphPad).

[2] = biological target: T1, CSF1R kinase (recombinant N-terminal GST-CSF1R, residues L534-C972) (Homo sapiens, UniProt P07333); test: CSF1R Kinase-Glo assay; format: biochemical; conditions: 40 μM ATP, 30° C. 180 min, read-out: Enzymatic Assay CSF1R enzyme IC50
T1 construct: Recombinant N-terminal GST-CSF1R (CSF1R residues L534-C972) containing the CSFIR kinase domain; made in house; host or cells: Sf9 insect cells
T1 sequence (P07333 534-972): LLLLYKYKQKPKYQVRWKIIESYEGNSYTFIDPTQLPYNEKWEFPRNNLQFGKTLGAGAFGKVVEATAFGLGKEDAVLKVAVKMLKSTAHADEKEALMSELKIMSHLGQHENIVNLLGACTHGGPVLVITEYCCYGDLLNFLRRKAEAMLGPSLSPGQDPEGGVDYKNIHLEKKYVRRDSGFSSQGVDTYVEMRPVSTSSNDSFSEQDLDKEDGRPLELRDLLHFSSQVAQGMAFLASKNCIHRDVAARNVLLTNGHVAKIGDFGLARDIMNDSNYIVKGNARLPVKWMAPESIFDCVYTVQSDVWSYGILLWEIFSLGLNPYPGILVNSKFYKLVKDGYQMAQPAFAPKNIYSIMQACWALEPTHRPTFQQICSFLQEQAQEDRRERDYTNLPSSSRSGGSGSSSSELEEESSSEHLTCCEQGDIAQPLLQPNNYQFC
Experimental: A study was conducted to test certain compounds described in EXAMPLE 1 in inhibiting CSF1R kinase activity.
Activity of CSF1R kinase was determined using a CSF1R Kinase-Glo assay. Recombinant N-terminal GST-CSF1R (CSF1R residues L534-C972) containing the CSFIR kinase domain was expressed in Sf9 insect cells and purified. The kinase assay was carried out in 96-well plates at 30° C. for 180 min with the tested compounds in a final volume of 50 μl including the following components: 25 mM Tris-HCl pH 7.4, 4 mM MnCl2, 10 mM MgCl2, 0.01% BSA, 0.5 mM NA3VO4, 0.02% Triton X-100, 40 μM ATP, 2 mM DTT and 20 μM poly(Glu,Tyr) 4:1 peptide, and 600 ng recombinant GST-CSF1R. Following incubation, 50 μl Kinase-Glo Plus Reagent (Promega, Madison, WI, USA) was added and the mixture was incubated at 25° C. for 20 min. A 70-μL aliquot of each reaction mixture was transferred to a black microtiter plate and luminescence was measured on Wallac Vector 1420 multilabel counter (PerkinElmer, Shelton, CT, USA). Percentage inhibition values were obtained by comparison of reaction rate with the rates in control wells (i.e., in the absence of test compound). IC50 values were calculated from a series of percentage inhibition values determined at a range of test compound concentrations using GraphPad Prism version 6 software (GraphPad, San Diego, CA, USA).

M-NFS-60 cells = test: MTS cell viability assay, M-NFS-60; format: cell-based; conditions: 72 h, read-out: Cellular Proliferation Assay M-NFS-60 (nM) GI50
Experimental: as §1, §2, §3

GI50 [1]	IC50 [2]	SMILES	GI50 (M-NFS-60 cells)
100 to 1000 nM	20 to 100 nM	O=C(Nc1ccccc1)Nc1ccc(Oc2ncnc3cc(N4CCC[C@@H]4CO)ccc23)cc1 [Compound 1]	100 to 1000 nM
20 to 100 nM	20 to 100 nM	COC1CCN(c2ccc3c(Oc4ccc(NC(=O)Nc5ccccc5)cc4)ncnc3c2)CC1 [Compound 2]	20 to 100 nM
20 to 100 nM	20 to 100 nM	CN1CCN(c2ccc3c(Oc4ccc(NC(=O)Nc5ccccc5)cc4)ncnc3c2)CC1 [Compound 3]	20 to 100 nM
20 to 100 nM	20 to 100 nM	CN(C)c1ccc2c(Oc3ccc(NC(=O)Nc4ccccc4)cc3)ncnc2c1 [Compound 4, 1-(4-((7-(dimethylamino)quinazolin-4-yl)oxy)phenyl)-3-phenylurea]	20 to 100 nM
	20 to 100 nM	O=C(Nc1ccccc1)Nc1ccc(Oc2ncnc3cc(N[C@@H]4CCCC[C@H]4O)ccc23)cc1 [Compound 5]	100 to 1000 nM
	20 to 100 nM	COC[C@@H]1CCCN1c1ccc2c(Oc3ccc(NC(=O)Nc4ccccc4)cc3)ncnc2c1 [Compound 6]	
	> 1000 nM	O=C(Nc1ccccc1)Nc1ccc(Oc2ncnc3cc(Br)ccc23)cc1 [Compound 7]	
	100 to 1000 nM	O=C(Nc1ccccc1)Nc1ccc(Oc2ncnc3cc(F)ccc23)cc1 [Compound 8]	
20 to 100 nM	20 to 100 nM	O=C(Nc1ccccc1)Nc1ccc(Oc2ncnc3cc(N4CCCC4)ccc23)cc1 [Compound 9]	20 to 100 nM
100 to 1000 nM	20 to 100 nM	COC[C@H]1CCCN1c1ccc2c(Oc3ccc(NC(=O)Nc4ccccc4)cc3)ncnc2c1 [Compound 10]	100 to 1000 nM
20 to 100 nM	20 to 100 nM	CN(C)C1CCN(c2ccc3c(Oc4ccc(NC(=O)Nc5ccccc5)cc4)ncnc3c2)CC1 [Compound 11]	20 to 100 nM
	20 to 100 nM	COCCCNc1ccc2c(Oc3ccc(NC(=O)Nc4ccccc4)cc3)ncnc2c1 [Compound 12]	
	100 to 1000 nM	CN(C)c1ccc2c(Oc3ccc(NC(=O)Nc4ccc(C(F)(F)F)cc4)cc3)ncnc2c1 [Compound 13]	
< 20 nM	< 20 nM	CN(C)c1ccc2c(Oc3ccc(NC(=O)Nc4ccccc4F)cc3)ncnc2c1 [Compound 14]	100 to 1000 nM
20 to 100 nM	< 20 nM	CN(C)c1ccc2c(Oc3ccc(NC(=O)Nc4ccccc4Cl)cc3)ncnc2c1 [Compound 15]	100 to 1000 nM
20 to 100 nM	< 20 nM	CN(C)c1ccc2c(Oc3ccc(NC(=O)Nc4cccc(Cl)c4)cc3)ncnc2c1 [Compound 16]	20 to 100 nM
20 to 100 nM	< 20 nM	COC1CCN(c2ccc3c(Oc4ccc(NC(=O)Nc5cccc(Cl)c5)cc4)ncnc3c2)CC1 [Compound 17]	20 to 100 nM
	100 to 1000 nM	CN(C)c1ccc2c(Oc3ccc(NC(=S)Nc4ccccc4)cc3)ncnc2c1 [Compound 22]	
	100 to 1000 nM	CCc1cc(Oc2ncnc3cc(N(C)C)ccc23)ccc1NC(=O)NCc1ccc(C(F)(F)F)nc1 [Compound 29]	
	> 1000 nM	Cc1cc(Oc2ncnc3cc(N(C)C)ccc23)c(C)cc1NC(=O)NCc1ccc(C(F)(F)F)nc1 [Compound 35]	
	20 to 100 nM	CN(C)c1ccc2c(Oc3ccc(NC(=O)NCc4ccc(C(F)(F)F)nc4)c(F)c3)ncnc2c1 [Compound 36]	100 to 1000 nM
	> 1000 nM	Cc1cc(Oc2ncnc3cc(N(C)C)ccc23)ccc1NC(=O)NCc1ccc(C(F)(F)F)nc1 [Compound 38]	
	< 20 nM	CN(CCCO)c1ccc2c(Oc3ccc(NC(=O)NCc4ccc(C(F)(F)F)nc4)cc3)ncnc2c1 [Compound 39]	100 to 1000 nM
100 to 1000 nM	20 to 100 nM	CCOc1cc2ncnc(Oc3ccc(NC(=O)NCc4ccc(C(F)(F)F)nc4)cc3)c2cc1F [Compound 41]	

GI50 [1]	IC50 [2]	SMILES	GI50 (M-NFS-60 cells)
	> 1000 nM	CN(C)c1ccc2c(Oc3ccc(N(C)C(=O)NCc4ccc(C(F)(F)F)nc4)cc3)ncnc2c1 [Compound 47]	
	20 to 100 nM	CN(C)c1ccc2c(Oc3ccc(NC(=O)NCC4CCCCC4)cc3)ncnc2c1 [Compound 50]	
	100 to 1000 nM	CN(C)c1ccc2c(Oc3ccc(NC(=O)Nc4cccc5ccccc45)cc3)ncnc2c1 [Compound 52]	
	100 to 1000 nM	CN(C)c1ccc2c(Oc3ccc(NC(=O)Nc4cccc(C(F)(F)F)c4)cc3)ncnc2c1 [Compound 53]	
	100 to 1000 nM	CN(C)c1ccc2c(Oc3ccc(NC(=O)NCc4cccnc4)cc3)ncnc2c1 [Compound 54]	
	20 to 100 nM	COc1ccc(CNC(=O)Nc2ccc(Oc3ncnc4cc(N(C)C)ccc34)cc2)cc1OC [Compound 55]	
	20 to 100 nM	CN(C)c1ccc2c(Oc3ccc(NC(=O)NCc4ccc(C#N)cc4)cc3)ncnc2c1 [Compound 60]	
	100 to 1000 nM	CN(C)c1ccc2c(Oc3ccc(NC(=O)NCc4ccc(C(F)(F)F)cc4)c(F)c3)ncnc2c1 [Compound 61]	
100 to 1000 nM	< 20 nM	CN(C)c1ccc2c(Oc3ccc(NC(=O)NCc4c(F)c(F)c(F)c(F)c4F)cc3)ncnc2c1 [Compound 62]	
	> 1000 nM	COc1ccc(CNC(=O)Nc2ccc(Oc3ncnc4cc(N(C)C)ccc34)cc2C)cc1 [Compound 64]	
	> 1000 nM	CN(C)c1ccc2c(Oc3ccc4c(cnn4C(=O)NCc4ccc(C(F)(F)F)nc4)c3)ncnc2c1 [Compound 69]	
	100 to 1000 nM	CN(C)c1ccc2c(Nc3ccc(NC(=O)Nc4ccccc4)cc3)ncnc2c1 [Compound 71]	
	> 1000 nM	COCCCNC(=O)c1cc(Oc2ccc(NC(=O)Nc3ccccc3)cc2)ccn1 [Compound 72]	
	20 to 100 nM	CN(C)c1ccc2c(Oc3ccc(NC(=O)NCc4ccc(C(F)(F)F)nc4)cc3)ccnc2c1 [Compound 73]	
	> 1000 nM	CN(C)c1ccc2c(Oc3ccc(NC(=O)NCc4ccc(C(F)(F)F)nc4)cc3)c(C#N)cnc2c1 [Compound 75]	
	100 to 1000 nM	O=C(NCc1ccc(C(F)(F)F)nc1)Nc1ccc(Oc2ccnc(C(=O)NCCCN3CCOCC3)c2)cc1 [Compound 77]	
	100 to 1000 nM	CN(C)c1ccc2c(Oc3cnc4c(ccn4C(=O)NCc4ccc(C(F)(F)F)nc4)c3)ncnc2c1 [Compound 83]	
	100 to 1000 nM	CN(C)c1ccc2c(Oc3ccc(NC(=O)NCc4ccn(C)n4)cc3)ncnc2c1 [Compound 84]	
	20 to 100 nM	Cn1cc(-c2ccc3c(Oc4ccc(NC(=O)NCc5ccc(C(F)(F)F)nc5)cc4)ncnc3c2)cn1 [Compound 85]	
	> 1000 nM	COC(C)(C)CNC(=O)Nc1ccc(Oc2ncnc3cc(N(C)C)ccc23)cc1 [Compound 87]	
	100 to 1000 nM	CN(C)c1ccc2c(Oc3ccc4c(ccn4C(=O)NCc4ccc(C(F)(F)F)nc4)n3)ncnc2c1 [Compound 89]	
	100 to 1000 nM	CN(C)c1ccc2c(Oc3ccc(NC(=O)NCC(C)(C)C)cc3)ncnc2c1 [Compound 90]	
	20 to 100 nM	O=C(NCc1ccc(C(F)(F)F)nc1)Nc1ccc(Oc2ncnc3[nH]ccc23)cc1 [Compound 93]	
	20 to 100 nM	CNc1ccc2c(Oc3ccc(NC(=O)Nc4ccccc4)cc3)ncnc2c1 [Compound 107]	
